We go through 5 molecules from patent publication US10682371B2, “Small molecule conjugates specifically activated in tumor microenvironment for targeting and use thereof” (priority 2014, dated 2020).

Read-outs that look alike come from different tables or passages of the source.

The subject of test [1] is Human renal cancer OS-RC-2 tumor tissue homogenate. The test is classed as biochemical. The conditions noted are these: for Activation Efficiencies (%): Human renal cancer OS-RC-2 tumor tissue homogenate (30 μg/ml), 1 mg/ml compound; for Activation ratio (%) in homogenates from different tumor tissues: Human renal cancer OS-RC-2. As to the method: (§1) At 37 °C, sample compounds were added into 100 μg acidized tumor tissue homogenates (pH6.0) in a concentration of 1 mg/ml.
(§2) […], sample compounds were added into 100 μg acidized tumor tissue homogenates (pH6.0) in a concentration of 1 mg/ml.
(§3) At 37 °C, sample compounds were added into 100 μg acidized tumor tissue homogenates in a concentration of 1 mg/ml.
(§4) In the experiments, at 37 °C, compounds were added into proteases in 100 μg acidized tumor tissue homogenates in a concentration of 1 mg/ml. […] Meanwhile certain compounds produced in the screening were compared and their activation efficiency in same tissue was analyzed.
(§5) At 37° C., compounds were added into proteases in 100 μg acidized tumor tissue homogenates in a concentration of 1 mg/ml.

Test [2] concerns Human pancreatic cancer Panc-1 tumor tissue homogenate. The test is classed as biochemical. As to conditions: for Activation Efficiencies (%): Human pancreatic cancer Panc-1 tumor tissue homogenate (30 μg/ml), 1 mg/ml compound; for Activation ratio (%) in homogenates from different tumor tissues: Human pancreatic cancer Panc-1. Here is the method:
as §1, §2, §3, §4, §5

Test [3] relates to Human prostate cancer PC-3 tumor tissue homogenate. The test is classed as biochemical. As to conditions: for Activation Efficiencies (%): Human prostate cancer PC-3 tumor tissue homogenate (30 μg/ml), 1 mg/ml compound; for Activation ratio (%) in homogenates from different tumor tissues: Human prostate cancer PC-3. Here is the method:
as §1, §2, §3, §4, §5

Test [4] concerns Human ovarian cancer SK-OV-3 tumor tissue homogenate. It counts as biochemical. The conditions noted are these: for Activation Efficiencies (%): Human ovarian cancer SK-OV-3 tumor tissue homogenate (30 μg/ml), 1 mg/ml compound; for Activation ratio (%) in homogenates from different tumor tissues: Human ovarian cancer SK-OV-3. As to the method:
as §1, §2, §3, §4, §5

The test system of test [5] is Human non-small cell lung cancer A549 tumor tissue homogenate. It counts as biochemical. The conditions noted are these: for Activation Efficiencies (%): Human non-small cell lung cancer A549 tumor tissue homogenate (30 μg/ml), 1 mg/ml compound; for Activation ratio (%) in homogenates from different tumor tissues: Human non-small cell lung cancer A549. As to the method:
as §1, §2, §3, §4, §5

The test system of test [6] is Human liver cancer Hepg2 tumor tissue homogenate. The test is classed as biochemical. As to conditions: for Activation Efficiencies (%): Human liver cancer Hepg2 tumor tissue homogenate (30 μg/ml), 1 mg/ml compound; for Activation ratio (%) in homogenates from different tumor tissues: Human liver cancer Hepg2. Here is the method: as §1, §2, §3, §4, §5
Test [7] relates to Human chronic leukemia K562 tumor tissue homogenate. The test is classed as biochemical. As to conditions: for Activation Efficiencies (%): Human chronic leukemia K562 tumor tissue homogenate (30 μg/ml), 1 mg/ml compound. Here is the method:
as §1, §2, §3, §4, §5

The test system of test [8] is Human colon cancer HT-29 tumor tissue homogenate. It counts as biochemical. The conditions noted are these: for Activation ratio (%) in homogenates from different tumor tissues: Human colon cancer HT-29. Here is the method: as §1, §2, §3, §4, §5
A further test deals with tumor CD8+ T cells. It counts as in vivo, C57 mice. A digest of the protocol:
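Flow cytometric ratio of CD8⁺ to CD45⁺ cells in dissociated tumour. Cell suspensions were labelled with CD45-PE and CD8-FITC for 1 h at room temperature, then washed twice in phosphate buffer with 1% fetal bovine serum.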

Test [9] deals with Human breast cancer MDA-MB435 tumor tissue homogenate. It counts as biochemical. The conditions noted are these: for Activation Efficiencies (%): Human breast cancer MDA-MB435 tumor tissue homogenate (30 μg/ml), 1 mg/ml compound; for Activation ratio (%) in homogenates from different tumor tissues: Human breast cancer MDA-MB435. As to the method: as §1
(§6) At 37 °C, sample compounds were added into 100 μg acidized human breast cancer (MDA-MB435) tumor tissue homogenates (pH6.0) in a concentration of 1 mg/ml.
as §2, §6, §3, §4, §5

The subject of a further test is D121 lung tumor cells. The test is classed as in vivo, C57 mice. The conditions noted are these: for Treatment effects on C57 mice, in words: compared to the control group and the other treatment groups. An outline of the steps:
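Endpoint is tumor inhibition rate from tumor size (mm^3) after weekly drug treatment for 4 weeks, begun once s.c. tumors from 10^6 live D121 cells reached 0.3-0.4 cm. Before challenge, C57 mice received three i.p. doses of 5×10^5 irradiated D121 cells, two weeks apart, or saline.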

Setting [10] is: D121 immunized C57 mice, 13.2 μmol/kg, ratio of CD8 positive cells in CD45 positive cells of tumor.
[11] abbreviates: D121 immunized C57 mice, 13.2 μmol/kg weekly, PDL1 antibody 5 μg/kg where combined, Day 18.
Where [12] appears, read: 100 μg acidized homogenate pH6.0, 1 mg/ml, 37°.
Setting [13] is: D121 immunized C57 mice, drugs weekly for 4 weeks, Day 18 (Example 23).
Setting [14] is: ratio of CD8 positive cells in CD45 positive cells of tumor, flow cytometry, drugs 13.2 μmol/kg, PDL1 antibody 5 μg/kg.
Setting [15] is: Day 18, immunized C57 mice, drugs 13.2 μmol/kg, PDL1 antibody 5 μg/kg, weekly for 4 weeks.

Consider “4-N—(N—(N—(N-(6-maleimido caproyl)-L-alanyl)-L-alanyl)-L-asparaginyl)-amino benzyl alcohol-MMAE-carbamate [Compound S6]”, for which the “Activation Efficiencies (%)” value in [1] is 20.4%; in [2] it was 17.3%; in [3] it was 13.2%; in test [4], 23.5%; in test [5], 27.4%; in test [6], 26.7%. For the same molecule, the “Activation Efficiencies (%)” value is listed as 28.4% in [7]; 22.4% in test [8] (Human colon cancer HT-29 tumor tissue homogenate (30 μg/ml), 1 mg/ml compound); 25.6% in [9]. Also, in the test with tumor CD8+ T cells (setting [10]), the “CD8: D45 (%)” value is 13.0%. Moreover, in the test on D121 lung tumor cells (setting [11]), the “Inhibitory rate on tumor Day 18” value was 29.47. The “Size of tumor (mm^3) Day 18” value with D121 lung tumor cells (setting [11]) was determined as 957.46 ± 257.87 mm^3. For the same molecule, the “Treatment effects on C57 mice, in words” value in the test with D121 lung tumor cells is given as “improved treatment effect as compared to the daunorubicin group”.
Regarding `COCCOCC(=O)N[C@H](C)C(=O)N[C@H](C)C(=O)N[C@H](CC(N)=O)C(=O)Nc1ccc(COC(=O)OC(C(=O)OC2C[C@@]3(O)C(OC(=O)c4ccccc4)[C@@H]4C5(OC(C)=O)COC5C[C@H](O)[C@@]4(C)C(=O)[C@H](OC(C)=O)C(=C2C)C3(C)C)[C@@H](NC(=O)c2ccccc2)c2ccccc2)cc1` (stereo in doubt) [S1′, 2-(2-methoxyethoxy) acetylamino-L-Ala-L-Ala-L-Asn-p-amino-benzyl-paclitaxel], the “Activation ratio (%) in homogenates from different tumor tissues” value in test [1] (setting [12]) turned out to be 86.4%; in test [2] (setting [12]), 94.8%; in [3] (setting [12]), 97.3%; in test [4] (setting [12]) it was 88.4%; in test [5] (setting [12]), 86.4%; in test [6] (setting [12]), 95.3%. Besides, the “Activation ratio (%) in homogenates from different tumor tissues” value in test [7] (Human chronic leukemia K562, 100 μg acidized homogenate pH6.0, 1 mg/ml, 37°) is recorded as 64.7%; in test [8] (setting [12]), 79.4%; in test [9] (setting [12]) it was 92.3%. Besides, in the test on tumor CD8+ T cells (D121 immunized C57 mice (Example 23), CD8 positive cells in CD45 positive cells of tumor), the “CD8: CD45 (%)” value was 19.6%. The “activation efficiency (%)” value in [9] (human breast cancer (MDA-MB435) tumor tissue homogenates pH6.0, 100 μg, 1 mg/ml, control compounds vs S1′-S4′) is 94.3%. Also, in the test with D121 lung tumor cells (setting [13]), the “Size of tumor (mm^3) Day 18” value turned out to be 237.60 ± 156.42 mm^3. Further, the “inhibitory rate on tumor % Day 18” value in the test on D121 lung tumor cells (setting [13]) turned out to be 84.9%. In the test with D121 lung tumor cells (combination with PDL1-antibody), the “Effect together with PDL1-antibody in promoting immunization and treatment, in words” value is given as “excellent synergistic effect”. Also, the “Treatment effects on C57 mice, in words” value in the test on D121 lung tumor cells was “greatly improved”.
In the case of `COCCOCCOCCOCCOCCOCC(=O)N[C@H](C)C(=O)N[C@H](C)C(=O)N[C@H](CC(N)=O)C(=O)Nc1ccc(COC(=O)N2[C@H]3[C@@H]2CN2C4=C(C(=O)C(N)=C(C)C4=O)[C@H](COC(N)=O)[C@]32OC)cc1` [Compound E2], the “Activation ratio (%) in homogenates from different tumor tissues” value was 94.5% in test [1] (37° C., 1 mg/ml); 84.6% in test [2] (37° C., 1 mg/ml); 86.4% in test [3] (37° C., 1 mg/ml); 97.6% in test [4] (37° C., 1 mg/ml); 96.4% in test [5] (37° C., 1 mg/ml); 94.8% in test [6] (37° C., 1 mg/ml). Also, the “Activation ratio (%) in homogenates from different tumor tissues” value in test [8] (37° C., 1 mg/ml) was determined as 96.1%; in [9] (37° C., 1 mg/ml), 90.6%. The “CD8: CD45 (%)” value in the test with tumor CD8+ T cells (setting [14]) worked out at 19.7%. Also, the “Size of tumor (mm^3) Day 18” value in the test on D121 lung tumor cells (setting [15]) came out at 331.57 ± 124.45 mm^3. The “inhibitory rate on tumor % Day 18” value with D121 lung tumor cells (setting [15]) came to 83.87%. In addition, the “Treatment effects on C57 mice, in words” value with D121 lung tumor cells is given as “greatly improved”.
For `COc1cccc2c1C(=O)c1c(O)c3c(c(O)c1C2=O)C[C@@](O)(C(C)=O)C[C@@H]3O[C@H]1C[C@H](NC(=O)OCc2ccc(NC(=O)[C@H](CC(N)=O)NC(=O)[C@H](C)NC(=O)[C@H](C)NC(=O)CCCCCN3C(=O)C=CC3=O)cc2)[C@H](O)[C@H](C)O1` [Compound S5, 4-N—(N—(N—(N-(6-maleimidocaproyl)-L-alanyl)-L-alanyl)-L-asparaginyl)-amino benzyl alcohol-daunorubicin-carbamate], the “Activation Efficiencies (%)” value in test [1] came out at 98.3%; in test [2], 97.4%; in [3], 97.3%; in test [4], 97.4%; in [5] it was 96.7%; in [6], 67.3%. For the same molecule, the “Activation Efficiencies (%)” value in [7] was determined as 73.5%; in test [9], 96.7%. Moreover, the “CD8: CD45 (%)” value in the test on tumor CD8+ T cells (setting [10]) was 17.4%. Moreover, the “Size of tumor (mm^3) Day 18” value in the test with D121 lung tumor cells (setting [11]) is 379.75 ± 125.64 mm^3. Besides, in the test on D121 lung tumor cells, the “Treatment effects on C57 mice, in words” value is on record as “greatly improved”.
`CO[C@@]12[C@H](COC(N)=O)C3=C(C(=O)C(C)=C(N)C3=O)N1C[C@@H]1N[C@@H]12` [mitomycin, reference compound]: the “CD8: CD45 (%)” value in the test with tumor CD8+ T cells (setting [14]) is given as 6.7%. Besides, in the test with D121 lung tumor cells (setting [15]), the “Size of tumor (mm^3) Day 18” value came out at 1210.28 ± 368.45 mm^3 and the “inhibitory rate on tumor % Day 18” value was found to be 28.62%.
